Data taken from patent publication US9023851B2 (Merck Patent GmbH, priority 2010, dated 2015).
pIC50: −log10 of the molar value.

Key:
BTK = molecular target: T1, BTK (Homo sapiens, UniProt Q06187); assay: BTK enzymatic assay (Caliper LifeSciences technology); assay type: biochemical
T1 construct: purchased Carna Bioscience, Kobe, Japan
Procedure: (§1) Enzymatic Assays Using the Caliper LifeSciences Technology
(§2) The assays described here are performed on the Caliper Life Sciences LC3000 system This technology provides data on enzyme activity via measurement of the relative amounts of phosphorylated or unphosphorylated fluorescently labelled substrate peptide at the end of an enzymatic reaction. These different states of peptide are resolved by applying a potential difference across the sample. The presence of the charged phosphate group on the product (as opposed to the substrate) causes a different peptide mobility between the two peptides. This is visualized by excitation of the fluorescent label on the substrate and product peptides and represented as peaks within the analysis software.
(§3) In order to measure inhibitor activity of kinase inhibitors on this technology, a TTP Mosquito liquid handling instrument is used to place 0.25 ul of the appropriate concentration of inhibitor in 100% DMSO (for a dose response curve calculation) into each well of a 384-well plate. To this reaction components are added to a final volume of 25 ul. The table below indicates the sequences and concentrations for the assays described in this report. Standard components are 1 mM DTT (Sigma, D0632), 1 mM MgCl2 (Sigma, M1028), 100 mM HEPES pH 7.5 (Calbiochem, 391338), 0.015% Brij-35 (Sigma, B4184).
(§4) The reaction is incubated for 90 min at 25 C, and then stopped by the addition of 70 ul of Stop buffer (100 mM HEPES pH 7.5, 0.015% Brij-35, 10 mM EDTA (Sigma, E7889)).
(§5) The plate is read on a Caliper LC 3000 in an Off-Chip mobility shift assay format, on a 12-sipper chip. Unphosphorylated substrate and phosphorylated product peptide resolve as separate peaks allowing direct measurement of percentage of conversion of substrate to product. The percent conversion can be plotted against concentration of inhibitor to produce a sigmoidal dose response curve, from which an IC50 can be calculated using GeneData Condoseo or a similar product. Cellular activity assays

Syk = molecular target: T2, Syk (Homo sapiens, UniProt P43405); assay: Syk enzyme assay (flash plate / Caliper mobility shift); assay type: biochemical
T2 construct: purchased BPS Bioscience, CA, USA
Procedure, shortened: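 Flashplate format used 2.5 nM SYK, 400 nM biotinylated peptide and 10 µM ATP with 33P tracer, pH 7.5, 1 h at 30 °C, read by radioactivity. Caliper format ran 90 min at 25 °C in HEPES pH 7.5, reading percent peptide conversion by mobility shift. IC50s came from dose-response curves.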

ZAP-70 = molecular target: T3, ZAP-70 (Homo sapiens, UniProt P43403); assay: Zap70 enzymatic assay (Caliper LifeSciences technology); assay type: biochemical
T3 construct: purchased BPS Bioscience, CA, USA
T3 sequence (P43403 1-619): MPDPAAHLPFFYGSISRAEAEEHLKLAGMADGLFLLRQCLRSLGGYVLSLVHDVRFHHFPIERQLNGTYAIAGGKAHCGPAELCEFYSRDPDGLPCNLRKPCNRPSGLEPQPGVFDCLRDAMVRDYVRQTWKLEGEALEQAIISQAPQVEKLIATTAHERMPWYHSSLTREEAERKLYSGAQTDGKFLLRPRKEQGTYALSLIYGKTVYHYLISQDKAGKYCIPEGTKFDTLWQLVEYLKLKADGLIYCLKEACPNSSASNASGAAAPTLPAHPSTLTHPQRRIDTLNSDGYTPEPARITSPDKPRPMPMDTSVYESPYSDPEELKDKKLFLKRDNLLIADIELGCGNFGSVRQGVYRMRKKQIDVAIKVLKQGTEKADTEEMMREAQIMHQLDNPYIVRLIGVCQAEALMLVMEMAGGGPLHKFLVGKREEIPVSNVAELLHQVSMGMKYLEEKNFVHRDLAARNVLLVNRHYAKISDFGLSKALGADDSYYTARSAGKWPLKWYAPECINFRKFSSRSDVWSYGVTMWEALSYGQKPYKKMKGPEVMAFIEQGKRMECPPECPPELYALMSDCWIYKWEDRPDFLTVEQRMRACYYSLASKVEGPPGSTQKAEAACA
Procedure, shortened: (§6)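 Off-chip mobility-shift assay quantifying conversion of a fluorescent peptide substrate to phosphorylated product. Reactions in 100 mM HEPES pH 7.5, 1 mM DTT, 1 mM MgCl2, 0.015% Brij-35, 90 min at 25 C, stopped with EDTA. IC50 from sigmoidal fit of percent conversion versus inhibitor concentration.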

GCN2 = GCN2 (Homo sapiens, UniProt Q9P2K8); assay: GCN2 kinase TR-FRET (Lanthascreen) assay; assay type: biochemical
Sequence of GCN2 (Q9P2K8 whole entry, species assumed): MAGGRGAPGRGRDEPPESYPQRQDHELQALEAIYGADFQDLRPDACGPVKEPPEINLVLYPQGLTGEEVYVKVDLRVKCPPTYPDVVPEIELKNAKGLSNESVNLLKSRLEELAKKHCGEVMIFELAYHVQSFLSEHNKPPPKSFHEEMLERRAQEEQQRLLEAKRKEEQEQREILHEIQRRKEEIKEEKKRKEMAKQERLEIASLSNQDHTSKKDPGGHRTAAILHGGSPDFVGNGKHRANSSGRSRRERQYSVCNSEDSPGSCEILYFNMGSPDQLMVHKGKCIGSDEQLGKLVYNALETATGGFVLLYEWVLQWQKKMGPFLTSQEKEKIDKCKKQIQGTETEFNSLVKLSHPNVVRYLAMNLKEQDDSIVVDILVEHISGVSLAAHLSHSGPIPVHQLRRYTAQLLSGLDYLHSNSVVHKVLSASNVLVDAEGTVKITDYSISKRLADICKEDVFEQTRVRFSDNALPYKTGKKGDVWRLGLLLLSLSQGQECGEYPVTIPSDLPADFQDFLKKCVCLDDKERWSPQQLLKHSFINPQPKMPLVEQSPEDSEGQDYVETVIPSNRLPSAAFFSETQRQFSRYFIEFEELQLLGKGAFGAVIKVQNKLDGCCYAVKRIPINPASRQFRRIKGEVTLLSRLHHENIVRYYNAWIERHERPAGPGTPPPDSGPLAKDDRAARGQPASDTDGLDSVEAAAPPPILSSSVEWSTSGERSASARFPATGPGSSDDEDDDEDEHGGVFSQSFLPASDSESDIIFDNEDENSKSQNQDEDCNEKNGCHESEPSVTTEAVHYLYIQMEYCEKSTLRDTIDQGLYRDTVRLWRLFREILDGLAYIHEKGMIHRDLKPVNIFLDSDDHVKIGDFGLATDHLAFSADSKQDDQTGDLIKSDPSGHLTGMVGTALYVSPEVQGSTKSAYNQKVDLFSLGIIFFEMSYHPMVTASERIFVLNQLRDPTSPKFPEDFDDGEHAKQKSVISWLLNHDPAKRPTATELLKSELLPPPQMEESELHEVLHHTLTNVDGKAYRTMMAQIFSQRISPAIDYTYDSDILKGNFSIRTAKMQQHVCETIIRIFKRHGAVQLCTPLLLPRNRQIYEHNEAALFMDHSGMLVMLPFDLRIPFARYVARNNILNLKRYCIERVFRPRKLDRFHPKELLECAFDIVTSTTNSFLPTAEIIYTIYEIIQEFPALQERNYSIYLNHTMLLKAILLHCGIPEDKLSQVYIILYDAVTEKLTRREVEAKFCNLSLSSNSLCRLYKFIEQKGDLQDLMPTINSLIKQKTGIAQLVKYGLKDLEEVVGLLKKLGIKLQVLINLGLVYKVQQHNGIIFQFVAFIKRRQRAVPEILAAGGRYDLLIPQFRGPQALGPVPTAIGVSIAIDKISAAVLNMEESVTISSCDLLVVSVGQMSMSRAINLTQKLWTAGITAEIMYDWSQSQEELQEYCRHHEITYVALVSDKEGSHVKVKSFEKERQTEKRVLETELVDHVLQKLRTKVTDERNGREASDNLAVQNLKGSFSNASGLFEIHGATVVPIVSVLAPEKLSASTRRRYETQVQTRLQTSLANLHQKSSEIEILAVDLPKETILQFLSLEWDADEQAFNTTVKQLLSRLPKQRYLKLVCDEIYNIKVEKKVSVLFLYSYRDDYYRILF
Text: GCN2: Assay Principle & Conditions
This assay can quantificate the activity of the serin kinase GCN2 (general control non-derepressible-2).
This kinase is involved in the stress metabolism of cells. It is activated upon starvation (amino acid depletion). Its natural substrate is eIF2a (eukaryotic initiation factor 2 alpha subunit), a translation factor, which gets activated (phosphorylated) by GCN2 in case of an amino acid bottleneck in the cells. This in turn leads to a halt of the protein synthesis. Inhibition of GCN2 results in stopping this mechanism: The cell can not stop protein production upon “starvation” stress.
The assay is run in two steps: the enzymatic reaction and the detection step. In the first step GCN2 is incubated with 10 μM ATP and 80 nM of the GFP-labelled substrate eIF2alpha at room temperature.
The enzymatic reaction is stopped by addition of EDTA. The amount of phosphorylated eIF2alpha is determined by TR-FRET (Lanthascreen): A complex is formed consisting of antibody and GFP labelled phospho-eIF2a, which allows a FRET upon exitation at 340 nm.
The GCN2-activity is directly proportional to the ratio of fluorescence units at the emission wavelengthh 520 nm (phosphopeptide-sensitive wavelength=emission of GFP) to the units at 495 nm (reference wavelength=emission of Terbium-chelate).
Assay Procedure • 4 uL enzyme solution (in assay buffer) • 1.5 uL compound (in cmpd dilution buffer/6.3% DMSO) • Incubation 20 min at RT • 4 uL substrate/ATP mix (in assay buffer) • Incubation 90 min at RT • 10 uL stop/detection mix (in antibody dilution buffer) • Incubation 60 min at RT • Readout Lanthascreen 340/495/5204

Ramos cells = assay: BCR crosslinking-induced BLNK phosphorylation (BLNK cell assay); assay type: cell-based; conditions: Homo sapiens
Procedure: 1. BCR Crosslinking-Induced BLNK Phosphorylation
Ramos cells incubated overnight in IMDM medium containing 5% FCS were resuspended in IMDM medium without serum (3.3×10^6 cells/ml). 90 μl of cell suspension (300′000 cells) were incubated with 10 μl of SYK inhibitors (in 3% DMSO) for 20 minutes at 37° C., in 96 well plates. After preincubation with inhibitors, cells were activated with 10 μg/ml of goat antihuman anti-IgM for 10 minutes at 37° C. After stimulation, cells were fixed by addition of 80 μl of 4% paraformaldehyde followed by a 10 minutes incubation at RT and […] in 0.1% Triton X-100 in PBS. BLNK phosphorylation was detected by flow cytometry after staining of the cells with anti-BLNK-pY84-PE antibodies from BD pharmingen, for 45 minutes at RT. […]

Src = molecular target: T4, Src (Homo sapiens, UniProt P12931); assay: cSrc enzymatic assay (Caliper LifeSciences technology); assay type: biochemical
T4 construct: purchased Carna Bioscience, Kobe, Japan
T4 sequence (P12931 whole entry): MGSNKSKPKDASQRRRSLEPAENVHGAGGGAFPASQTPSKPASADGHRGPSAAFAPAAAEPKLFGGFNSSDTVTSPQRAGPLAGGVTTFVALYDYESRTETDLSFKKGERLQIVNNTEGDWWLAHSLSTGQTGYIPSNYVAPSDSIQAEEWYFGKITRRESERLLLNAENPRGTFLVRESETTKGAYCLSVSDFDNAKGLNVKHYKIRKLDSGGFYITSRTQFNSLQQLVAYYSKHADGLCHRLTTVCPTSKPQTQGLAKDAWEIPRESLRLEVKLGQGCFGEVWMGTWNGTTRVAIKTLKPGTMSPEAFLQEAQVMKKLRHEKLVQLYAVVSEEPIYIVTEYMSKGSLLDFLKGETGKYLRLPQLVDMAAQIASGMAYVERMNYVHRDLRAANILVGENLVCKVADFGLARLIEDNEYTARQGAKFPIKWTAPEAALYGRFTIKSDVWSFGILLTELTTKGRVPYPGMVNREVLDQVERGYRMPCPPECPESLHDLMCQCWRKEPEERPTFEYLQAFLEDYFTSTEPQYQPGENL
Procedure: as §1, §2, §3, §4, §5

KDR = molecular target: T5, KDR (Homo sapiens, UniProt P35968); assay: KDR enzymatic assay (Caliper LifeSciences technology); assay type: biochemical
T5 construct: purchased BPS Bioscience, CA, USA
T5 sequence (P35968 20-1356): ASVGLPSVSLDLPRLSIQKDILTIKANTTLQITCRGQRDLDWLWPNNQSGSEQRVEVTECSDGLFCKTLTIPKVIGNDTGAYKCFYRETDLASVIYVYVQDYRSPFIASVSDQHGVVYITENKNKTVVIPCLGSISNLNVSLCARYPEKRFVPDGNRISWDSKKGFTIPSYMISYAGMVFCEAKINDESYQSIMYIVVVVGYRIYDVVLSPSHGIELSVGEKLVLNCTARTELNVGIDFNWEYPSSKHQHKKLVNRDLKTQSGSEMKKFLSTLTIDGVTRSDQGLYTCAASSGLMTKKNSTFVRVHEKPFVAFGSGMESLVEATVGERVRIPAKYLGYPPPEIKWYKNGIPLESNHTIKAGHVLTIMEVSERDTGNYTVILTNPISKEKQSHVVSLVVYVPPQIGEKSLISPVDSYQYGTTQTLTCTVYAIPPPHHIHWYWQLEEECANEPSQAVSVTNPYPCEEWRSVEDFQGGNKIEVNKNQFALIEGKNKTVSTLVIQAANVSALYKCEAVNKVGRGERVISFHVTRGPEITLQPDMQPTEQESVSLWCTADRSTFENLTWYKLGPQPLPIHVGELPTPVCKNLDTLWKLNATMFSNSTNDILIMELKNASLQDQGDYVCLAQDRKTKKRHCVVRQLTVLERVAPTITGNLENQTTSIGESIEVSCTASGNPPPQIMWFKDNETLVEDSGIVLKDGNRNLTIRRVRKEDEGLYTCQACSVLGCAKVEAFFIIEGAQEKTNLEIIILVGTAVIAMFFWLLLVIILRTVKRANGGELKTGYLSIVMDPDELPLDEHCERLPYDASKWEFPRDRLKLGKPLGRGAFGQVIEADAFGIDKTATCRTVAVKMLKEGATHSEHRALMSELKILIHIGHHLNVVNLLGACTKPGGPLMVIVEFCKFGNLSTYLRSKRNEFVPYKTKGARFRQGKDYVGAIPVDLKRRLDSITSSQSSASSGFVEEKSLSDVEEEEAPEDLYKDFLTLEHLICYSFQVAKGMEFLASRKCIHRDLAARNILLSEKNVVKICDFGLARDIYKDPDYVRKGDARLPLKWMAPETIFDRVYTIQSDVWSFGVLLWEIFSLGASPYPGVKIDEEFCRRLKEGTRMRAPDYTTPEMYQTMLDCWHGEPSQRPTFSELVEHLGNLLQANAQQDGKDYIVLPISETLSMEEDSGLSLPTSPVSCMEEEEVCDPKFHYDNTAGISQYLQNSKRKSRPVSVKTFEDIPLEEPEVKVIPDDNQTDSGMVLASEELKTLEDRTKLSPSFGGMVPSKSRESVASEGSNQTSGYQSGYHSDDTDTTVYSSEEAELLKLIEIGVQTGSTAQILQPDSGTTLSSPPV
Procedure, shortened: as §6

3LL lung carcinoma = conditions: s.c. 3LL lung carcinoma in mice; cited from earlier work
[1] = murine model of RA, cited from earlier work
[2] = RA Phase II studies in humans; cited from earlier work

T1 sequence (Q06187 whole entry): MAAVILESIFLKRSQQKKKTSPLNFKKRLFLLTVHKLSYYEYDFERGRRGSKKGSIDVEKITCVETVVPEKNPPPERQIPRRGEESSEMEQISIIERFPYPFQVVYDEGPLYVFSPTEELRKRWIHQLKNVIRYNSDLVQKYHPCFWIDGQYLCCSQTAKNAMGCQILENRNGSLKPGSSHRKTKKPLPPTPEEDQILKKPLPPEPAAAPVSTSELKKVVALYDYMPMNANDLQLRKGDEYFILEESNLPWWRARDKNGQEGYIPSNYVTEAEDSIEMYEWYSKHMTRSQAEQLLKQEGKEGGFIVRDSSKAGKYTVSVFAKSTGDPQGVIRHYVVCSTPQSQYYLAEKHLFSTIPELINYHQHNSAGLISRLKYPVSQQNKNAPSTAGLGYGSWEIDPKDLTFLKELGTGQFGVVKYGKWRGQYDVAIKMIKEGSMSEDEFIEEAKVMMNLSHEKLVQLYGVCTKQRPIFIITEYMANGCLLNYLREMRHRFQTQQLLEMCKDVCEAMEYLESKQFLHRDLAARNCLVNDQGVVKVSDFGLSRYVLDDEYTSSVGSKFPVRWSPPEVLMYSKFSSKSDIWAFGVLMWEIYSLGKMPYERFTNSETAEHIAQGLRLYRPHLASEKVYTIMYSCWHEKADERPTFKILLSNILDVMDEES

Compound: c1ccc(Cn2ncc3ccc(Nc4nc5c(-c6nccs6)nccn5n4)cc32)cc1 [Example C24, (1-Benzyl-1H-indazol-6-yl)-(8-thiazol-2-yl-[1,2,4]triazolo[1,5-a]pyrazin-2-yl)-amine]
- pIC50 (BTK): 4.30 to 5.52
- pIC50 (Syk): 5.52 to 6.52
- pIC50 (ZAP-70): 4.30 to 5.52

Compound: Cc1cccc(Nc2nc3c(-c4ccc(N5CCOCC5)cc4)nccn3n2)c1 [Example E4]
- pIC50 (GCN2): > 5.00

Compound: Cc1cc(C)cc(Nc2nc3c(-c4cccnc4)nccn3n2)c1 [Example E6]
- pIC50 (GCN2): > 5.00

Compound: FC(F)(F)c1cccc(Nc2nc3c(-c4ccc(N5CCOCC5)cc4)nccn3n2)c1 [Example E3]
- pIC50 (GCN2): > 5.00

Compound: COc1cc(OC)cc(-c2nccn3nc(Nc4cc(C)cc(C)c4)nc23)c1 [Example E5]
- pIC50 (GCN2): > 5.00

Compound: COc1cc(Nc2nc3c(-c4cccnc4)nccn3n2)cc(OC)c1 [Example C19, (3,5-Dimethoxy-phenyl)-(8-pyridin-3-yl-[1,2,4]triazolo[1,5-a]pyrazin-2-yl)-amine]
- pIC50 (Ramos cells): 4.30 to 5.52
- pIC50 (BTK): 4.30 to 5.52
- pIC50 (Src): 5.52 to 6.52
- pIC50 (Syk): > 6.52
- pIC50 (KDR): 5.52 to 6.52
- pIC50 (ZAP-70): 4.30 to 5.52

Compound: N=C(NO)NCC[C@H](N)C(=O)O [N-hydroxy-nor-L-Arg]
- tumor growth (3LL lung carcinoma): blocks growth of s.c. 3LL lung carcinoma in mice

Compound: c1ccc(Cn2ncc3ccc(Nc4nc5c(-c6ccccc6)nccn5n4)cc32)cc1 [Example E8]
- pIC50 (GCN2): > 5.00

Compound: CN1CCN(c2ccc(Nc3nc4c(-c5cnn(C)c5)nccn4n3)cc2)CC1 [Example D18, [4-(4-Methyl-piperazin-1-yl)-phenyl]-[8-(1-methyl-1H-pyrazol-4-yl)-[1,2,4]triazolo[1,5-a]pyrazin-2-yl]-amine]
- pIC50 (Ramos cells): 4.30 to 5.52
- pIC50 (Src): 5.52 to 6.52
- pIC50 (Syk): > 6.52
- pIC50 (KDR): 5.52 to 6.52
- pIC50 (ZAP-70): 4.30 to 5.52

Compound: COc1ccc(Nc2nc3c(-c4cccnc4)nccn3n2)cc1OC [Example E10]
- pIC50 (GCN2): > 5.00

Compound: O=C1Nc2cc(Nc3nc4c(-c5nccs5)nccn4n3)ccc2OC1(F)F [Example C6, 2,2-Difluoro-6-(8-thiazol-2-yl-[1,2,4]triazolo[1,5-a]pyrazin-2-ylamino)-4H-benzo[1,4]oxazin-3-one]
- pIC50 (BTK): 4.30 to 5.52
- pIC50 (Src): 4.30 to 5.52
- pIC50 (Syk): 4.30 to 5.52
- pIC50 (KDR): 4.30 to 5.52

Compound: Cc1cc(C)cc(Nc2nc3c(-c4ccc(N5CCOCC5)cc4)nccn3n2)c1 [Example E2]
- pIC50 (GCN2): > 5.00

Compound: COc1cc(Nc2nc3c(-c4cccc(O)c4)nccn3n2)cc(OC)c1 [Example C268, 3-[2-(3,5-Dimethoxy-phenylamino)-[1,2,4]triazolo[1,5-a]pyrazin-8-yl]-phenol]
- pIC50 (Ramos cells): 4.30 to 5.52
- pIC50 (Src): 5.52 to 6.52
- pIC50 (Syk): > 6.52
- pIC50 (KDR): > 6.52
- pIC50 (ZAP-70): 5.52 to 6.52

Compound: Cn1ccnc1Sc1ccc(Nc2nc3c(-c4ccccc4)nccn3n2)cc1Cl [Example E7]
- pIC50 (GCN2): > 5.00

Compound: COc1cc(Nc2nc3c(-c4ccccc4)nccn3n2)cc(OC)c1 [Example C8, (3,5-Dimethoxy-phenyl)-(8-phenyl-[1,2,4]triazolo[1,5-a]pyrazin-2-yl)-amine]
- pIC50 (BTK): 4.30 to 5.52
- pIC50 (Syk): > 6.52
- pIC50 (KDR): > 6.52

Compound: c1ccc(Cn2ncc3ccc(Nc4nc5c(-c6nccs6)nccn5n4)cc32)cc1 [Example E9]
- pIC50 (GCN2): > 5.00

Compound: COc1cc(Nc2ncc(F)c(Nc3ccc4c(n3)NC(=O)C(C)(C)O4)n2)cc(OC)c1OC [Example R406]
- clinical scores ([1]; orally available Syk inhibitor): significant improvement of clinical scores
- serum cytokine concentrations and bone erosion [1]: significantly reduced serum cytokine concentrations, as well as bone erosion
- efficacy (ACR scores) [2]: efficacy (ACR scores improvement)
- tolerability [2]: good tolerability

Compound: CN1CCN(c2ccc(Nc3nc4c(-c5cnc6ccccc6c5)nccn4n3)cc2)CC1 [Example D23, [4-(4-Methyl-piperazin-1-yl)-phenyl]-(8-quinolin-3-yl-[1,2,4]triazolo[1,5-a]pyrazin-2-yl)-amine]
- pIC50 (Ramos cells): 4.30 to 5.52
- pIC50 (Src): > 6.52
- pIC50 (Syk): > 6.52
- pIC50 (KDR): 5.52 to 6.52
- pIC50 (ZAP-70): 4.30 to 5.52

Compound: c1ccc2ncc(-c3nccn4nc(Nc5ccc(N6CCOCC6)cc5)nc34)cc2c1 [Example C261]
- pIC50 (Ramos cells): 4.30 to 5.52
- pIC50 (Src): 5.52 to 6.52
- pIC50 (Syk): > 6.52
- pIC50 (KDR): > 6.52
- pIC50 (ZAP-70): 4.30 to 5.52

Compound: c1ccc(Nc2nc3c(-c4nccs4)nccn3n2)cc1 [Example C14, Phenyl-(8-thiazol-2-yl-[1,2,4]triazolo[1,5-a]pyrazin-2-yl)-amine]
- pIC50 (BTK): 4.30 to 5.52
- pIC50 (Src): 4.30 to 5.52
- pIC50 (Syk): 4.30 to 5.52
- pIC50 (KDR): 4.30 to 5.52
- pIC50 (ZAP-70): 4.30 to 5.52
